We go through three compounds from patent publication US20240050342A1, “PROLIPID COMPOSITION FOR PERSONALIZED BENEFITS AND METHOD FOR USING THE SAME” (Conopco, Inc., d/b/a UNILEVER, priority 2020, published 2024).

Structures are written as SMILES.

The test system of one test is human skin discards. Put plainly: Sphingosine/ceramide formation from deuterated palmitic acid in ex vivo human skin model (LC/MS/MS). Type of test: cell-based. On the procedure: In this experiment, a standard topical base composition was charged with 3% by weight deuterated d31palmitic acid and a second base was charged with 3% by weight deuterated d31palmitic acid in combination with 3% by weight 12-hydroxystearic acid. Both compositions were applied to separate human skin discards. Biopsies were taken, placed on collagen and incubated at 37° C. with about 5% carbon dioxide. Samples were harvested after 5 days, extracted, and fractionated to obtain ceramide fractions. Elongation of deuterated d31Palmitic acid (dC16:0) with and without the PPAR activator 12-hydroxystearic acid was investigated in an ex vivo human skin model. The ceramide fraction obtained was hydrolyzed to release deuterated sphingosine and analyzed via liquid chromatography/tandem mass-spectrometry (LC/MS/MS). This technique was used to identify and measure “precursor-to-product” ion transitions specific to deuterated sphingosine, and therefore, to track sphingosine formation from deuterated palmitic acid applied to skin discards. Unexpectedly, the amount of resulting deuterated sphingosine increased in the presence the PPAR activator. The numbers in units (“u”) provided depict the signal abundance of the biomolecules looked and accounted for in a sample as determined by LC/MS/MS. […]

Test [1] concerns neonatal keratinocyte model. In words: Elongation of deuterated d31-Palmitic acid with and without 12-hydroxystearic acid in neonatal keratinocyte model (LC/MS/MS). It counts as cell-based. On the procedure:
In this experiment the elongation of deuterated d31-Palmitic acid (dC16:0) with and without PPAR activator 12-hydroxystearic was investigated in a neonatal keratinocyte model. Keratinocytes were grown in an EpiLife™ medium (with calcium, from Thermo Fisher Scientific) in six well plate formats until confluency. Confluent keratinocytes were differentiated with CaCl2 treatment. The cells in wells deplete of PPAR activator were treated with the substrate: 1 uM of d31-Palmitic acid (dC16:0) every second or third day until harvested on day 7. The remainder of the samples were treated with 1 uM of the aforementioned dC16:0 and 12 hydroxystearic acid at the concentrations shown in the tables. Samples were extracted and analyzed via liquid chromatography/tandem mass-spectrometry (LC/MS/MS) for deuterated d31-Palmitic acid (dC16:0) elongation. Precursor-to-product ion transitions, specific to deuterated elongated fatty acids derived from d31-Palmitic acid, were identified and measured.

For test [2], the system named is EpiDerm in vitro 3D skin equivalents of keratinocytes. In words: Elongation of deuterated d23-Lauric acid in EpiDerm 3D skin equivalents (LC/MS/MS). It counts as cell-based, human. To be noted: for d23 C12:0 signal: lauric acid prior to elongation. On the procedure: In this experiment, EpiDerm in vitro 3D skin equivalents of keratinocytes (commercially available from Matek) were used as a model system to investigate bioconversions in human skin. The skin equivalents were topically treated with deuterated d23-Lauric acid (dC12:0) in propylene glycol:ethanol (70:30), one time per day for seven days with concentrations in the range of 400 ng/cm^2 to 5000 ng/cm^2. Samples were harvested, extracted and analyzed via liquid chromatography/tandem mass-spectrometry (LC/MS/MS) for deuterated d23-Lauric acid elongation. Precursor-to-product (i.e., elongation) ion transitions, specific to deuterated elongated fatty acids derived from d23 Lauric acid, were identified and measured. The first column depicts the signal for lauric acid provided to the EpiDerm prior to elongation.

Where [3] appears, read: 12HSA 3 uM with 1 uM dC16:0, harvested day 7.
[4] abbreviates: 12HSA 10 uM with 1 uM dC16:0, harvested day 7.
[5] abbreviates: 12HSA 30 uM with 1 uM dC16:0, harvested day 7.
Setting [6] is: 12HSA 100 uM with 1 uM dC16:0, harvested day 7.
Where [7] appears, read: 400 ng/cm2, once per day for seven days.
[8] abbreviates: 1000 ng/cm2, once per day for seven days.
The mark [9] stands for this setting: 5000 ng/cm2 dC12:0, once per day for seven days.
The mark [10] stands for this setting: 1 uM d31-Palmitic acid, No 12 HSA, harvested day 7.

In the case of `CCCCCCC(O)CCCCCCCCCCC(=O)O` (stereo not shown) [12HSA, 12-hydroxystearic acid], in the test on human skin discards (3% 12-hydroxystearic acid with 3% d31palmitic acid vs d31palmitic acid alone), the “amount of resulting deuterated sphingosine in the presence of the PPAR activator” value is given as “increased”. In addition, in test [1] (setting [3]), the “dC16:0 signal” value turned out to be 486506 u, the “dC18:0 signal” value is reported as 710249 u, the “dC20:0 signal” value stood at 11478 u and the “dC22:0 signal” value is recorded as 94091 u. Also, in test [1] (setting [3]), the “dC24:0 signal” value is recorded as 294398 u and the “dC26:0 signal” value amounted to 60180 u. In addition, in test [1] (setting [4]), the “dC16:0 signal” value was determined as 503533 u, the “dC18:0 signal” value stood at 713499 u, the “dC20:0 signal” value is listed as 13666 u and the “dC22:0 signal” value amounted to 98634 u. Also, in test [1] (setting [4]), the “dC24:0 signal” value was 306176 u and the “dC26:0 signal” value is given as 62141 u. Also, in test [1] (setting [5]), the “dC16:0 signal” value amounted to 921997 u, the “dC18:0 signal” value was found to be 792317 u, the “dC20:0 signal” value was found to be 18245 u and the “dC22:0 signal” value is reported as 131062 u. In test [1] (setting [5]), the “dC24:0 signal” value is listed as 470314 u and the “dC26:0 signal” value is reported as 109818 u. Moreover, in test [1] (setting [6]), the “dC16:0 signal” value worked out at 677241 u, the “dC18:0 signal” value is listed as 750585 u, the “dC20:0 signal” value turned out to be 75060 u and the “dC22:0 signal” value came out at 201806 u. For the same compound, in test [1] (setting [6]), the “dC24:0 signal” value was found to be 774622 u and the “dC26:0 signal” value is 219006 u. Also, in test [1] (compared to samples deplete of the activator), the “effect on formation of elongated fatty acids from d31-Palmitic acid” value is “boosts and enhances the formation of elongated fatty acids from d31C16:0 to d31C26:0”.

On to `[2H]C([2H])([2H])C([2H])([2H])C([2H])([2H])C([2H])([2H])C([2H])([2H])C([2H])([2H])C([2H])([2H])C([2H])([2H])C([2H])([2H])C([2H])([2H])C([2H])([2H])C(=O)O` [dC12:0, d23-Lauric acid], for which, in test [2] (setting [7]), the “d23 C14:0 signal” value is listed as 4670 u, the “d23 C16:0 signal” value amounted to 46204 u, the “d23 C18:0 signal” value turned out to be 140851 u and the “d23 C20 signal” value came to 20848 u. In test [2] (setting [7]), the “d23 C22:0 signal” value came to 45885 u, the “d23 C24:0 signal” value turned out to be 68863 u and the “d23 C12:0 signal” value is given as 24559 u. In test [2] (setting [8]), the “d23 C14:0 signal” value came out at 7481 u, the “d23 C16:0 signal” value stood at 338885 u, the “d23 C18:0 signal” value is listed as 467624 u and the “d23 C20 signal” value turned out to be 54050 u. Further, in test [2] (setting [8]), the “d23 C22:0 signal” value is given as 128640 u, the “d23 C24:0 signal” value was determined as 187974 u and the “d23 C12:0 signal” value is recorded as 51904 u. In test [2] (setting [9]), the “d23 C14:0 signal” value turned out to be 53655 u, the “d23 C16:0 signal” value came out at 1026969 u, the “d23 C18:0 signal” value turned out to be 1355969 u and the “d23 C20 signal” value was 227595 u. In test [2] (setting [9]), the “d23 C22:0 signal” value is on record as 513274 u, the “d23 C24:0 signal” value amounted to 758093 u and the “d23 C12:0 signal” value is 528578 u. The “bioconversion/elongation of dC12:0 in skin equivalents” value in test [2] (enzymes present in the skin equivalents) is “convert to dC16:0 via fatty acid synthase enzyme, followed by further elongation of dC16:0 to deuterated Lignoceric acid C24:0”.

Regarding `[2H]C([2H])([2H])C([2H])([2H])C([2H])([2H])C([2H])([2H])C([2H])([2H])C([2H])([2H])C([2H])([2H])C([2H])([2H])C([2H])([2H])C([2H])([2H])C([2H])([2H])C([2H])([2H])C([2H])([2H])C([2H])([2H])C([2H])([2H])C(=O)O` [deuterated palmitic acid, d31-Palmitic acid], the “Deuterated Sphingosine signal abundance” value in the test on human skin discards (hydrolyzed ceramide fraction, composition with 3% by weight of each ingredient applied to human skin discards, harvested after 5 days, 37° C.) is on record as 36,958 u. In addition, in test [1] (setting [10]), the “dC16:0 signal” value is given as 646987 u, the “dC18:0 signal” value is 663577 u, the “dC20:0 signal” value is reported as 11233 u and the “dC22:0 signal” value came out at 90496 u. For the same compound, in test [1] (setting [10]), the “dC24:0 signal” value is on record as 278426 u and the “dC26:0 signal” value is recorded as 60009 u.
